Measurements from ChEMBL document CHEMBL1201862, “PubChem BioAssay data set” (2004).
Values joined by “and” are separate entries in the source; they are usually repeats but may differ in a detail not shown here. Equal entries are not always repeated. Active and inactive are the calls of the source.

Assays:
[1] = target: 1-acylglycerol-3-phosphate O-acyltransferase ABHD5/Perilipin-5 (Homo sapiens, UniProt Q00G26+Q8WTS1); test: Luminescence-based biochemical high throughput dose response assay for inhibitors of the interaction of the lipase co-activator protein, abhydrolase domain containing 5 (ABHD5) with perilipin-5 (MLDP; PLIN5) (2K validation set). [Related pubchem assays (depositor defined):AID493035, AID493241]
Perilipin-1/ABHD5 = Perilipin-1/ABHD5 (Homo sapiens, UniProt O60240+Q8WTS1); test: Luminescence-based biochemical high throughput dose response assay for inhibitors of the interaction of the lipase co-activator protein, abhydrolase domain containing 5 (ABHD5) with perilipin-1 (PLIN1) (2K validation set). [Related pubchem assays (depositor defined):AID493027, AID493057]
Prothrombin = Prothrombin (Homo sapiens, UniProt P00734); test: Thrombin 1536 HTS Dose Response Confirmation. [Related pubchem assays: 1046 (Thrombin 1536 HTS; hits were confirmed in this assay)]; type: functional
Coagulation factor XII = target: T1, Coagulation factor XII (Homo sapiens, UniProt P00748); test: Factor XIIa Dose Response Confirmation from Single Well HTS. [Related pubchem assays (depositor defined):AID701]; type: functional
T1 sequence (P00748 whole entry): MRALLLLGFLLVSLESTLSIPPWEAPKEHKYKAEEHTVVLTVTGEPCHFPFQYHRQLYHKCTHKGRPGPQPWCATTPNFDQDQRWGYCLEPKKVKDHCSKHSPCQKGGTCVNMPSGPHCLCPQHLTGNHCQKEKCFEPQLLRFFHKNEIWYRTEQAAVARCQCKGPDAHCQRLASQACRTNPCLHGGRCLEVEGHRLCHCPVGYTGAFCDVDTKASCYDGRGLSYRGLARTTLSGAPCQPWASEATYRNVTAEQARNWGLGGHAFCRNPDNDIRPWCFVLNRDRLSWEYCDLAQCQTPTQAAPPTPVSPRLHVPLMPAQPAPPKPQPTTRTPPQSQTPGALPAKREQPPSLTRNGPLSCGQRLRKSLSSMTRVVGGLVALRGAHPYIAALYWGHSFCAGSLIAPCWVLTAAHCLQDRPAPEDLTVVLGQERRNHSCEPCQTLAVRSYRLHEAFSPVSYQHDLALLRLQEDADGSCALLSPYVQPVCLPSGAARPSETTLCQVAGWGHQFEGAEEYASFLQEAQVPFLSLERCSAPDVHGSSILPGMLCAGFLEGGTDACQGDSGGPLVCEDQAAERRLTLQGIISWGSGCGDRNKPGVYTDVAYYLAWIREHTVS

Protein skinhead-1 = target: T2, Protein skinhead-1 (Caenorhabditis elegans, UniProt P34707); type: functional
T2 sequence (P34707 whole entry): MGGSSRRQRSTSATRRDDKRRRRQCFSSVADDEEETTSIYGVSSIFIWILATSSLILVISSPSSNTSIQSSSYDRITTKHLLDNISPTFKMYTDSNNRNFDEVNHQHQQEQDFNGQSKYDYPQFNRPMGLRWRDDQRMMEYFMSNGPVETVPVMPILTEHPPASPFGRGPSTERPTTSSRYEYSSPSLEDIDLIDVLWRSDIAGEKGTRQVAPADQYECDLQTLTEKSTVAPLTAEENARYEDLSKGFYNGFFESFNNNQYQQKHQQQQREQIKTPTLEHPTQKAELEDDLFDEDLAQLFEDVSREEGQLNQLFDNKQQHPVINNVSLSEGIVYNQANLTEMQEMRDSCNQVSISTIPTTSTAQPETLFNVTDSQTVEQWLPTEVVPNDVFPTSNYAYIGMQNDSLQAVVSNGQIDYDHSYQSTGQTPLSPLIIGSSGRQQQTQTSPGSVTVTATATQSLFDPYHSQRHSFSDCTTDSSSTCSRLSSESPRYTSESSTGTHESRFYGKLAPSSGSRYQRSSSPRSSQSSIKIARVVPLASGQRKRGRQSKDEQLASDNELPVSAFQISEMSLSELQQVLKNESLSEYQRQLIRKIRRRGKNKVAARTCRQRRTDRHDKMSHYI

[2] = target: T3, Runt-related transcription factor 1/Core-binding factor subunit beta (Homo sapiens, UniProt Q01196+Q13951); test: inhibitors of RUNX1 Runt–CBFb-SMMHC binding, primary screen, biochemical, FRET, Cerulean-Runt, Venus-CBFb-SMMHC, uHTS (AID 1434); type: protein assay;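 note: partner is the CBFb-SMMHC leukemia fusion protein rather than wild-type CBFb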
SUMO-activating enzyme = SUMO-activating enzyme (Homo sapiens, UniProt Q9UBT2); test: SUMOylation inhibitor hit validation, confirmation, SUMOylation inhibitor project, biochemical, AlphaScreen (AID 2018); type: functional
[3] = target: T3, Runt-related transcription factor 1/Core-binding factor subunit beta; test: inhibitors of RUNX1 Runt–CBFb-SMMHC binding, biochemical, TR-FRET (AID 1438); type: protein assay
Integrin alpha-L = Integrin alpha-L (Mus musculus, UniProt P24063); test: modulators of CD8 T cell-vesicle binding, dose response, powder samples, mouse 2C CD8+ cells (AID 504565); type: functional
[4] = target: T4, Sphingosine 1-phosphate receptor 4 (Homo sapiens, UniProt O95977); test: S1P4 receptor agonists, human, late-stage follow-up, cell-based, fluorescence, synthesized compounds (AID 463107); type: functional
T4 sequence (O95977 whole entry): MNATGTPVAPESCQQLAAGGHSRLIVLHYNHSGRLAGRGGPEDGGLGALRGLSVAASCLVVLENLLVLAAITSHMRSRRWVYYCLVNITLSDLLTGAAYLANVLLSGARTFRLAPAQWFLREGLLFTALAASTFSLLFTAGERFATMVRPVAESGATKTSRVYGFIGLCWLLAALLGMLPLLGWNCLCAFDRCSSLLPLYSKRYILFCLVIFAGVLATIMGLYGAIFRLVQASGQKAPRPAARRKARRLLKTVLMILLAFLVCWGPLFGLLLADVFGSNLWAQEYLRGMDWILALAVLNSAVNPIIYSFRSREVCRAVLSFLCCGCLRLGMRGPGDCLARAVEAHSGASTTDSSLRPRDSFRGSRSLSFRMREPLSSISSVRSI

[5] = target: T4, Sphingosine 1-phosphate receptor 4; test: Late-stage fluorescence dose response cell-based assay to identify agonists of the Sphingosine 1-Phosphate Receptor 4 (S1P4): purchased compounds EC50. [Related pubchem assays (depositor defined):AID1509, AID1523, AID1563, AID1686, AID1701, AID1801]; type: functional
Mu-type opioid receptor = Mu-type opioid receptor (Homo sapiens, UniProt P35372); test: SAR Analysis of Antagonists of the MOR Receptor using an Image-Based Assay - Set 3. [Related pubchem assays (depositor defined):AID1777, AID1785, AID1786, AID1966, AID2133, AID2136, AID2284, AID2285, AID2420]; type: functional
[6] = target: Delta-type opioid receptor (Homo sapiens, UniProt P41143); test: SAR Analysis of Antagonists of the DOR Receptor using an Image-Based Assay - Set 3. [Related pubchem assays (depositor defined):AID1777, AID1785]; type: functional;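 note: U2OS cells expressing DOR1 and beta-arrestin GFP stimulated with 100 nM SNC80; imaging of GFP-tagged beta-arrestin moving into spots after receptor activation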
[7] = target: T5, Kappa-type opioid receptor (Homo sapiens, UniProt P41145); test: SAR analysis of small molecule antagonists of the kappa opioid receptor via a luminescent beta-arrestin assay - Set 3. [Related pubchem assays (depositor defined):AID1777, AID1778, AID1785, AID1786, AID1966, AID2133, AID2136, AID2285, AID2495]; type: functional
[8] = target: T5, Kappa-type opioid receptor; test: SAR analysis of Antagonists of the Kappa Opioid Receptor (KOR) using an Image-Based Assay - Set 3. [Related pubchem assays (depositor defined):AID1777, AID1785]; type: functional
CAAX prenyl protease 2 = CAAX prenyl protease 2 (Saccharomyces cerevisiae S288c, UniProt Q03530); type: biochemical
Hexokinase HKDC1 = target: T6, Hexokinase HKDC1 (Homo sapiens, UniProt Q2TB90); test: HKDC1 hexokinase activators, dose response, biochemical, W721R variant (AID 504730); type: functional
T6 sequence (Q2TB90 whole entry): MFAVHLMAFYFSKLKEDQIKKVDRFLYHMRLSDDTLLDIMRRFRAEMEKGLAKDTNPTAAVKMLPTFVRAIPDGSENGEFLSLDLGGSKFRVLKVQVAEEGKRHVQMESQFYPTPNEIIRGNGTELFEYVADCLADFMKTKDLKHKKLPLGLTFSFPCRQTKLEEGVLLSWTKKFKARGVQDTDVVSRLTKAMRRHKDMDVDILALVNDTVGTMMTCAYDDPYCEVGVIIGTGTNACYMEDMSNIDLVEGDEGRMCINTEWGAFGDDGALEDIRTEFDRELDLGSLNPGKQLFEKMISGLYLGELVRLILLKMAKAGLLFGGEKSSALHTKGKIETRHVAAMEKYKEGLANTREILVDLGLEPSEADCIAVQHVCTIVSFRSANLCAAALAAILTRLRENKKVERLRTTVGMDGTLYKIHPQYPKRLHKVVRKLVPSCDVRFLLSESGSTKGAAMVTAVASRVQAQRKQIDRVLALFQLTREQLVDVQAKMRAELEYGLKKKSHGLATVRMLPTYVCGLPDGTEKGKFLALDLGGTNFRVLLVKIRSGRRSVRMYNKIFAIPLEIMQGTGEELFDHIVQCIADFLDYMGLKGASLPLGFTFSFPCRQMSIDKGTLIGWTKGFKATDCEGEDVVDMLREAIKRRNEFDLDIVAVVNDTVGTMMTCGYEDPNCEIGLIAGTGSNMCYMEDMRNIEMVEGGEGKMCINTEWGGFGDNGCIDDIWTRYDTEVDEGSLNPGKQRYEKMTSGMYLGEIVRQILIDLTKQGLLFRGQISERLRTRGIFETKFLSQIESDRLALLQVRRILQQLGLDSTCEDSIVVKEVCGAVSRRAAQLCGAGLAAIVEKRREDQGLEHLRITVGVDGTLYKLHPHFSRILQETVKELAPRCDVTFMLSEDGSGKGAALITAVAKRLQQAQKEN

Nonstructural protein 1 = Nonstructural protein 1 (Influenza A virus, UniProt Q194T2); type: functional, Influenza A virus (A/California/07/2009(H1N1))
Hexokinase-1 = Hexokinase-1 (Homo sapiens, UniProt P19367); test: hexokinase 1 activators, dose response, selectivity assay for HKDC1 activator project, biochemical (AID 504762); type: functional
[9] = target: Alkaline phosphatase, placental type (Homo sapiens, UniProt P05187); test: PLAP enzyme inhibitors, confirmation, biochemical, luminescence (AID 1512); type: functional
[10] = target: T7, Alkaline phosphatase, tissue-nonspecific isozyme (Homo sapiens, UniProt P05186); test: human TNAP enzyme inhibitors, SAR follow-up, biochemical, luminescent, dose response (AID 1056)
T7 sequence (P05186 whole entry): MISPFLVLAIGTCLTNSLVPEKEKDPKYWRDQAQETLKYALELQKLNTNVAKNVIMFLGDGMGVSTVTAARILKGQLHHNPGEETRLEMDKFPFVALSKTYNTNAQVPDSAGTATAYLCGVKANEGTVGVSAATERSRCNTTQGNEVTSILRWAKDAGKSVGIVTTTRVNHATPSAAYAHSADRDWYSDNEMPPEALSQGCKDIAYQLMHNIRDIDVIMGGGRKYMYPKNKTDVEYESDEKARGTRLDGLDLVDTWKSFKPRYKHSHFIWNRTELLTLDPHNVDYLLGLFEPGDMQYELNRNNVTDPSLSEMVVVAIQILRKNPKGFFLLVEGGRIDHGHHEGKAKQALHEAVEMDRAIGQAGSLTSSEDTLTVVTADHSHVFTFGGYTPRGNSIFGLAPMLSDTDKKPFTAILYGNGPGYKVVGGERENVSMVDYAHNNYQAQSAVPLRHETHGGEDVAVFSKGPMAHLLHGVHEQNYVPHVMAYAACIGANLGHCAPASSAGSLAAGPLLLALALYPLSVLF

Hexokinase = Hexokinase (Trypanosoma brucei, UniProt Q38C41); test: Confirmation assay for inhibitors of Trypanosoma brucei hexokinase 1-Analogue-first series. [Related pubchem assays (depositor defined):AID1430, AID1632, AID2516, AID2560, AID2579, AID2600, AID449725, AID492951]; type: functional
Chain of Hexokinase (Q38C41 whole entry): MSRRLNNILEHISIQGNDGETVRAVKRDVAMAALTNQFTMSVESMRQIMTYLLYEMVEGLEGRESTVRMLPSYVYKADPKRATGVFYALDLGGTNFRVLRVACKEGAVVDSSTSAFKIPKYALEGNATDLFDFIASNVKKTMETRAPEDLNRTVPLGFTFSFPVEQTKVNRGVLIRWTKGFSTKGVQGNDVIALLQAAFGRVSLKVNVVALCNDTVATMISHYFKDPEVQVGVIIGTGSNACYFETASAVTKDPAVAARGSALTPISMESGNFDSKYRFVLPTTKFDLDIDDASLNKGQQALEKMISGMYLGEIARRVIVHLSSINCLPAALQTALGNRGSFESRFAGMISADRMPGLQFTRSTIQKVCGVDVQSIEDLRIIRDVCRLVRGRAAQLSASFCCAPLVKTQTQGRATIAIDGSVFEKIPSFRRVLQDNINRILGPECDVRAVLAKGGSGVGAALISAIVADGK

T3 sequence (Q01196 whole entry, the tested form may be a part): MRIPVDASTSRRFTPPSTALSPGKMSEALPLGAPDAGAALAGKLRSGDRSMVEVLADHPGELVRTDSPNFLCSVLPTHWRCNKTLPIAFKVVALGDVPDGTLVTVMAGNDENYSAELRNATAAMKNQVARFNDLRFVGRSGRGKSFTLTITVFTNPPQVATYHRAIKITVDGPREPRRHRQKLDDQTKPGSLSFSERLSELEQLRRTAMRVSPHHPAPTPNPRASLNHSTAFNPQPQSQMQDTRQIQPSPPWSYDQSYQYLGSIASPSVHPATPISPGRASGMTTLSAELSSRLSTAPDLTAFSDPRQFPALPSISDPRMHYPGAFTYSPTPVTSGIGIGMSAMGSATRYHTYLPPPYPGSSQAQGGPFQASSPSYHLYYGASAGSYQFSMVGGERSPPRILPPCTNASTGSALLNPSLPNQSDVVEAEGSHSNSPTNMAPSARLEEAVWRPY
T3 sequence (Q13951 whole entry, the tested form may be a part): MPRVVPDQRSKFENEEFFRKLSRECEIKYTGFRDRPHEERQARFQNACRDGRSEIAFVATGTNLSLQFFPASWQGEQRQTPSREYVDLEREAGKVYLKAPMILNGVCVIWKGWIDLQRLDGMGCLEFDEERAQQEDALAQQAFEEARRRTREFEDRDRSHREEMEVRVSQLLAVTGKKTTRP
T5 sequence (P41145 whole entry): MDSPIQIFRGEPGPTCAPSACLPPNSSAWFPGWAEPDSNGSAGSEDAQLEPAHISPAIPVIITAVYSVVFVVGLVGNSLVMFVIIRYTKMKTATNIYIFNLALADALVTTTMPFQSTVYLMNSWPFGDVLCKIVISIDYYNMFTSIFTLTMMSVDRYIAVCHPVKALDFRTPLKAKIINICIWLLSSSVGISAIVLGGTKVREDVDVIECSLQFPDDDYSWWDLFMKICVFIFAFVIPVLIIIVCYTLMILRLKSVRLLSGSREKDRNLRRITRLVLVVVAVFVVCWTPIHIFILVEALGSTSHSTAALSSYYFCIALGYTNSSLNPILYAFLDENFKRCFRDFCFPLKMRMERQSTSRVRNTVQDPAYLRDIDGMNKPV
Chain of Alkaline phosphatase, placental type (P05187 whole entry): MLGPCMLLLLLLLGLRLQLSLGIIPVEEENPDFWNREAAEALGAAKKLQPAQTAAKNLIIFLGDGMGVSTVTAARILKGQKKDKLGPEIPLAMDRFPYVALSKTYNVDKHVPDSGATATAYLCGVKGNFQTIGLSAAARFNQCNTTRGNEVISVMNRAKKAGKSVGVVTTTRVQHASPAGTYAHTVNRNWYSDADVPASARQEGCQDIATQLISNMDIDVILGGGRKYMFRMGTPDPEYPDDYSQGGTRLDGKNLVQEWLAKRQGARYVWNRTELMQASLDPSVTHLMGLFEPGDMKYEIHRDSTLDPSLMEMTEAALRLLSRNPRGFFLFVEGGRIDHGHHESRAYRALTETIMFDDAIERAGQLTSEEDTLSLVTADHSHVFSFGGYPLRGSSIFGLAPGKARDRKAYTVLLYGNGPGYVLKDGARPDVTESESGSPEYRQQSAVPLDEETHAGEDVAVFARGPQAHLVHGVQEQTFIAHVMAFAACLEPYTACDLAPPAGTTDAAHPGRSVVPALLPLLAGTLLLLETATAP
Chain of Perilipin-1/ABHD5 (Q8WTS1 whole entry, the tested form may be a part): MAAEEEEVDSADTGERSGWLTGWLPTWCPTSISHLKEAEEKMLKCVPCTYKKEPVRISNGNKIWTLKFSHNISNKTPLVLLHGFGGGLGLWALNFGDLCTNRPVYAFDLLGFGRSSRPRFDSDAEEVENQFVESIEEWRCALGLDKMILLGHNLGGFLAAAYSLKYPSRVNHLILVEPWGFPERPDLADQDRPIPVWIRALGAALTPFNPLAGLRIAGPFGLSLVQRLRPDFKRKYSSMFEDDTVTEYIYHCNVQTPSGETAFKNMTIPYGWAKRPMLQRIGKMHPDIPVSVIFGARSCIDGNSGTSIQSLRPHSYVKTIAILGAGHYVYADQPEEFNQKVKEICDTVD
Chain of Perilipin-1/ABHD5 (O60240 whole entry, the tested form may be a part): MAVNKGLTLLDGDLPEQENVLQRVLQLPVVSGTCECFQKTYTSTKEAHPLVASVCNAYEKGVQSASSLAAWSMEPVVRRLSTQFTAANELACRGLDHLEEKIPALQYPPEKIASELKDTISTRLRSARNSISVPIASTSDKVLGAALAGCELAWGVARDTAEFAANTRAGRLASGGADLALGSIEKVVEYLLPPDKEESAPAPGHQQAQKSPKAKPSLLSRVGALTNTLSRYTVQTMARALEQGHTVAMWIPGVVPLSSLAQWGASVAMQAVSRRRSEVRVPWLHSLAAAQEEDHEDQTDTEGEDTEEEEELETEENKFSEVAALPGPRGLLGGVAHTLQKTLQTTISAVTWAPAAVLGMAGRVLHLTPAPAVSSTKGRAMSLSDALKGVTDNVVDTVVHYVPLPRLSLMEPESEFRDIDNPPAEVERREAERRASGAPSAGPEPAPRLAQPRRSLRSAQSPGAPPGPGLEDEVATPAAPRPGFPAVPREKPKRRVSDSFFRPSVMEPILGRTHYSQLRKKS
Chain of 1-acylglycerol-3-phosphate O-acyltransferase ABHD5/Perilipin-5 (Q00G26 whole entry, the tested form may be a part): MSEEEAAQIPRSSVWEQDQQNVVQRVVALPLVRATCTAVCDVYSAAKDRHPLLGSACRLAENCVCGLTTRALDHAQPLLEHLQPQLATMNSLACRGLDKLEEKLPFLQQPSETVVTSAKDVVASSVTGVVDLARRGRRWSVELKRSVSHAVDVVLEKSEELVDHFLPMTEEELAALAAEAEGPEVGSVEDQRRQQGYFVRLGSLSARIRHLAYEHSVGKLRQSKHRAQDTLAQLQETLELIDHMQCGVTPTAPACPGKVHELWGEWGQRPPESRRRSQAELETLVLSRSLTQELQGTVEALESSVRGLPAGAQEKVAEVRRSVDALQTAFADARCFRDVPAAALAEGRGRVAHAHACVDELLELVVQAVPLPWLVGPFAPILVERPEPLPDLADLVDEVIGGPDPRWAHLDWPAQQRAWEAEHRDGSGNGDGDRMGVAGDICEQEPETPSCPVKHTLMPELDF
Chain of 1-acylglycerol-3-phosphate O-acyltransferase ABHD5/Perilipin-5 (Q8WTS1 whole entry, the tested form may be a part): as the sequence (Q8WTS1 whole entry, the tested form may be a part) above
Chain of Hexokinase-1 (P19367 whole entry): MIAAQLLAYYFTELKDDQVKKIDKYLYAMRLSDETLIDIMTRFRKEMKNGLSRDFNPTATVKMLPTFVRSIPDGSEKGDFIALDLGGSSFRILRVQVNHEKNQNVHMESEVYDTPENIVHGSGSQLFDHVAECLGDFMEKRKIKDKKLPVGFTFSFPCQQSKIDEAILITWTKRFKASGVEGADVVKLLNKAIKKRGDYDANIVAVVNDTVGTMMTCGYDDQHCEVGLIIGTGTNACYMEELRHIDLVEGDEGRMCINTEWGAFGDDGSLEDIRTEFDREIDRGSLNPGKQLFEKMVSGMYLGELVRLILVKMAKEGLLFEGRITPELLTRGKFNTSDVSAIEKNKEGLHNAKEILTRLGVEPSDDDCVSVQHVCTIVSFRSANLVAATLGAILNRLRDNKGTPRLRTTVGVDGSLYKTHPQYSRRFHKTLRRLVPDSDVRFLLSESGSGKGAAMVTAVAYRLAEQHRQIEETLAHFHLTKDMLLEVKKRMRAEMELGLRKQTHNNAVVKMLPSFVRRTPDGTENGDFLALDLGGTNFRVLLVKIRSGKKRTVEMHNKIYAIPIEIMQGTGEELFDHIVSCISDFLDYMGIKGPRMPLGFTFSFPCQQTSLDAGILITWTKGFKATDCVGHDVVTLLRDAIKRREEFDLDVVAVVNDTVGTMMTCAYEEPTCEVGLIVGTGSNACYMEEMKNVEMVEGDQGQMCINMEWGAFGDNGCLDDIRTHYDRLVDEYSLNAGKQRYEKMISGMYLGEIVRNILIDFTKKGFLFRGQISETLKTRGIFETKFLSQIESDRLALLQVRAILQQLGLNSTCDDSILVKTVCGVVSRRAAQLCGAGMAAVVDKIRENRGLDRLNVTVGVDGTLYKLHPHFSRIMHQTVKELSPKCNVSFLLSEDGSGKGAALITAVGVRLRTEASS
Chain of CAAX prenyl protease 2 (Q03530 whole entry): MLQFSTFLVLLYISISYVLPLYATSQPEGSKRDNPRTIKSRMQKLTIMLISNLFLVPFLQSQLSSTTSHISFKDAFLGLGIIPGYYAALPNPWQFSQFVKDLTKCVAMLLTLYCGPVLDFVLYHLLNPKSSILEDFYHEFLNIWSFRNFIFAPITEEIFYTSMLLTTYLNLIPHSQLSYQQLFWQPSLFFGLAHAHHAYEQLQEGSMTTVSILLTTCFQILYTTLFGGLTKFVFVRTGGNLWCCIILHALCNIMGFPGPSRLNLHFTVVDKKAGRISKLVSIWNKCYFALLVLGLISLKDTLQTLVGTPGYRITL
Chain of Nonstructural protein 1 (Q194T2 whole entry): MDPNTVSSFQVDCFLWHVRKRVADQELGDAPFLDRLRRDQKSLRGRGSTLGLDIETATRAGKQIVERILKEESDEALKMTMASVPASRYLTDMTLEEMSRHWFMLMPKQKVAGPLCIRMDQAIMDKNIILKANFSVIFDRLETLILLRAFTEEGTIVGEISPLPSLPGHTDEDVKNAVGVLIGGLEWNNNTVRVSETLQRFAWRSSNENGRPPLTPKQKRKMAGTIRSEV

## O=C(CN1CC[n+]2c(-c3cccs3)csc21)c1ccc(Br)cc1
[1]
  IC50: 14.8 µM (inactive)
Perilipin-1/ABHD5
  IC50: 27.5 µM (inactive)

## Cc1ccc(C(=O)n2nc(-c3cccnc3)nc2N)cc1
Prothrombin
  IC50: 0.543 µM (active)
Coagulation factor XII
  IC50: 0.796 µM (active)
Protein skinhead-1
  IC50: > 100 µM (inactive)

## N=c1c(S(=O)(=O)c2ccccc2)cc2c(=O)n3ccccc3nc2n1Cc1ccco1
[2]
  IC50: 3.38 µM (active)
SUMO-activating enzyme
  IC50: 6.01 µM (active)
[3]
  IC50: 57.5 µM (inactive)

## Cc1ccccc1C(=O)N1CCC(C(=O)Nc2ccc(C)c(S(=O)(=O)N3CCCCC3)c2)CC1
Integrin alpha-L
  EC50: 29.1 µM (inactive)

## Cc1ccc(OCCOc2ccc(Br)cc2)c([N+](=O)[O-])n1
[4]
  EC50: > 50 µM (inactive)
[5]
  EC50: 20.7 µM (inactive) and 23.3 µM (inactive)

## CCN(CCNC(=O)c1ccc(CNS(=O)(=O)c2ccc(OC)cc2)cc1)Cc1ccccc1
Mu-type opioid receptor
  IC50: 12.6 µM (inactive)
[6]
  IC50: > 32 µM (inactive)
[7]
  IC50: 16.3 µM (inactive)
[8]
  IC50: 10.8 µM (inactive)

## O=C(CCNC(=O)N1CC(=O)Nc2ccccc21)NCCc1cccc(F)c1
CAAX prenyl protease 2
  AC50: 0.359 µM (active)

## S=C(NN=C(c1ccccc1)c1ccccn1)N(Cc1ccccn1)Cc1ccccn1
Hexokinase HKDC1
  EC50: 1.78 µM (active)
Nonstructural protein 1
  IC50: 2.59 µM (active)
Hexokinase-1
  EC50: > 80 µM (inactive)

## O=C(NC1(C(Cl)(Cl)Cl)Oc2ccccc2O1)OCN1C(=O)C2C=CC=CC2C1=O (configuration not stated)
[9]
  IC50: > 100 µM (inactive)
[10]
  IC50: > 100 µM (inactive)

## CC(C)(C)c1ccc(C(=O)Nc2cc(Cl)ccc2-c2nnn[nH]2)cc1
Hexokinase
  IC50: 3.46 µM (active)
